According to PubChem BioAssay (NCI):
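Cultured in 96-well plates, cells were exposed to test compound for 48 hours across five concentrations. GI50 is the concentration that inhibits growth by half. TGI marks complete inhibition of growth.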

Experiments:
Test in all cases: DTP human tumour cell line panel, 48 h
K-562 leukemia = tested on: K-562 leukemia
CAKI-1 renal = tested on: CAKI-1 renal
SK-MEL-2 melanoma = tested on: SK-MEL-2 melanoma
SW-620 colon = tested on: SW-620 colon
SF-539 CNS = tested on: SF-539 CNS
OVCAR-4 ovarian = tested on: OVCAR-4 ovarian
CCRF-CEM leukemia = tested on: CCRF-CEM leukemia
NCI/ADR-RES ovarian = tested on: NCI/ADR-RES ovarian
ACHN renal = tested on: ACHN renal
M14 melanoma = tested on: M14 melanoma

Structure (SMILES)	GI50 (K-562 leukemia)	TGI (K-562 leukemia)	GI50 (CAKI-1 renal)	TGI (CAKI-1 renal)	GI50 (SK-MEL-2 melanoma)	TGI (SK-MEL-2 melanoma)	GI50 (SW-620 colon)	TGI (SW-620 colon)	GI50 (SF-539 CNS)	TGI (SF-539 CNS)	GI50 (OVCAR-4 ovarian)	TGI (OVCAR-4 ovarian)	GI50 (CCRF-CEM leukemia)	TGI (CCRF-CEM leukemia)	GI50 (NCI/ADR-RES ovarian)	TGI (NCI/ADR-RES ovarian)	GI50 (ACHN renal)	TGI (ACHN renal)	GI50 (M14 melanoma)	TGI (M14 melanoma)
OCCNCCNc1c2ccccc2nc2oc3ccccc3c12	33.9 µM	> 100 µM	11.9 µM	56.4 µM	20.6 µM	43.9 µM	5.23 µM	24.4 µM	8.04 µM	21 µM	10.2 µM	34.6 µM	8.97 µM	41.9 µM	14.5 µM	79.1 µM	5.82 µM	32.7 µM	12 µM	24.5 µM
CC(=O)c1c[nH]cc1CO	–	> 10 µM	–	> 10 µM	–	> 10 µM	–	> 10 µM	–	> 10 µM	–	–	–	> 10 µM	–	> 10 µM	–	> 10 µM	–	> 10 µM
CN(C)c1ccc(O)c2c1C[C@H]1C[C@H]3[C@H](N(C)C)C(=O)C(C(N)=O)=C(O)[C@@]3(O)C(=O)C1=C2O	–	–	2.16 µM	20.9 µM	–	–	5.84 µM	> 100 µM	3.88 µM	15.5 µM	7.53 µM	> 100 µM	6.27 µM	65.9 µM	11.6 µM	> 100 µM	4.09 µM	> 100 µM	5.09 µM	65.9 µM
CSC1C(=O)c2ccccc2/C(=N/Nc2nc3ccccc3s2)C1C (stereo not given)	1.7 µM	4.55 µM	8.85 µM	20.1 µM	7.34 µM	18 µM	12.9 µM	34.1 µM	12.5 µM	21.8 µM	–	–	–	–	9.94 µM	25.5 µM	5.65 µM	11.7 µM	14.6 µM	33.1 µM
COc1ccc2c(c1)OC(N)=C(C#N)C2c1ccc(F)cc1 (stereo not given)	–	–	–	–	0.633 µM	> 100 µM	0.533 µM	> 100 µM	1.64 µM	6.58 µM	6.59 µM	> 100 µM	2.31 µM	> 100 µM	0.516 µM	> 100 µM	6.35 µM	> 100 µM	0.529 µM	44.2 µM
CC1=C(C(=O)Nc2ccc(F)c(Cl)c2)C(c2cccc(Oc3ccccc3)c2)NC(=O)N1 (stereo not given)	–	–	18.6 µM	38.8 µM	17.2 µM	32.4 µM	18.2 µM	38.2 µM	14.6 µM	28.3 µM	–	–	10.4 µM	26.4 µM	19 µM	37.2 µM	15.1 µM	28.4 µM	15.2 µM	29.3 µM
CCOc1ccccc1NC(=O)C1=C(C)NC(C)=C(C(=O)Nc2ccccc2OCC)C1c1ccc(NC(C)=O)cc1	–	> 100 µM	–	> 100 µM	–	58.6 µM	–	> 100 µM	–	> 100 µM	–	> 100 µM	–	> 100 µM	–	–	–	> 100 µM	–	> 100 µM
O=C(CN1C(=O)c2ccccc2C1=O)C(O)CN1C(=O)c2ccccc2C1=O (stereo not given)	–	–	–	> 100 µM	–	> 100 µM	–	> 100 µM	–	> 100 µM	–	> 100 µM	–	–	–	> 100 µM	–	49.3 µM	–	> 100 µM
